How the values were obtained:
small human bronchi = assay: Relaxation of small human bronchi, with and without 2-APB pre-treatment
From the text: More recent studies have lead to the belief that they instead block the TRPC receptor.

[1] = test system: guinea pig airway preparations; conditions: cited from earlier work
[2] = test system: human isolated airway preparations (bronchus) contracted with LTD4; assay: LTD4-induced contraction of isolated human bronchus preparation (force transducer), remaining contraction after exposure to test substance; conditions: for effectiveness in relaxing broncho-constriction in comparison to capsazepine: LTD4 as broncho-contracting agent, test system of Example 1
Method: Dissection and mounting of lung tissue preparations. Lung tissue was obtained from patients undergoing lobectomia or pulmectomia due to lung carcinoma. The tissue was placed in a dissection chamber continuously perfused with 10 ml min^−1 of a physiological saline solution (PSS) at room temperature. An airway was identified in the cut part of the lobe, and a bronchus of 10-20 mm length and 1-2 mm diameter was obtained. The bronchus was cut into rings of a width of about 2-3 mm. Each bronchial ring was cleaved to obtain an about rectangular oblong preparation, one end of which was tied to a small steel hook connected to a force transducer, while the other end of the preparation was attached to a fixed hook. This is followed by a period of adjustment, as described below. The preparation was mounted in an atmosphere containing […] and 6% of CO2.
Experimental chamber. The experimental chamber has a a volume of 5 ml. It is perfused with PSS at a rate of 3 ml min^−1. Two preparations are mounted in the chamber, and measurements on them are performed in parallel. For mechanical tensioning each force transducer (AME 801, SensoNor A/S, Horten, Norway) is connected to a micrometer screw. The substances to be tested, the reference substance (capsazepine), and transmitter (LTD4) are injected upstream of the preparation(s).
Materials. PPS (physiological saline solution, in mM): NaCl, 117; KCl, 4.87; MgSO4, 0.60; NaHCO3, 25.0; CaCl2, 1.60; glucose, 5.23. The solution is saturated with a mixture of 94% oxygen and 6% carbon dioxide, giving a pH of 7.40±0.05 in the experimental chamber. All substances are prepared as stock solution dissolved in the vehicles ethanol or DMSO. Leukotriene D4 (LTD4; Keyman Ltd.): 10 μl of a 100 μM ethanol stock solution. Capsazepine (Sigma Aldrich): 10 μl of a 0.1 M ethanol stock solution. Substance to be tested: 10-100 μl of a 0.01-0.1 M ethanol or DMSO stock solution. Solution for establishing the passive tension level: calcium-free PSS+2 mM EGTA+20 mM caffeine. To exclude effects by the test substance vehicle, ethanol or DMSO, respectively, were added during the entire experiment except during the presence of test substance.
An exemplary test is shown in FIG. 1 in which capital letters indicate interference with the test system. The material for the preparation was a bronchus (inner diameter about 1 mm) from a occasional smoker but with the epithelium intact. Adjustment and stretch. After mounting as described above the preparation is allowed to adjust with a low passive tone in the experimental chamber. The composition of the gas is changed to 94% (v/v) of oxygen. After a short adjustment period, PSS with 10 nM LTD4 is added to the experimental chamber upstream of the preparation (A). The preparation is stretched repeatedly (B) until it exerts a contraction force of around 150 mg. When the contraction has levelled off, leukotriene-free solution is administered for 1 hour (C), resulting in a relaxation. A second injection of 10 nM LTD4 (D) makes the preparation return to the tensioned state. At the peak tension leukotriene-free solution is again administered (E). After a third injection of 10 nM LTD4 (F) the preparation returns to the tensioned state. At the peak, PSS with 10 μM capsazepine (G) is added, resulting in a relaxation. After 1 h exposure to capsazepine, LTD4 is added, resulting in a contraction (H). In comparison with the control LTD4 contraction (F), a substantially weaker contraction is now observed (H). […]

VR1 = VR1 (Rattus norvegicus, UniProt O35433); conditions: capsaicin-induced effects in rodents; cited from earlier work
Sequence of VR1 (O35433 whole entry): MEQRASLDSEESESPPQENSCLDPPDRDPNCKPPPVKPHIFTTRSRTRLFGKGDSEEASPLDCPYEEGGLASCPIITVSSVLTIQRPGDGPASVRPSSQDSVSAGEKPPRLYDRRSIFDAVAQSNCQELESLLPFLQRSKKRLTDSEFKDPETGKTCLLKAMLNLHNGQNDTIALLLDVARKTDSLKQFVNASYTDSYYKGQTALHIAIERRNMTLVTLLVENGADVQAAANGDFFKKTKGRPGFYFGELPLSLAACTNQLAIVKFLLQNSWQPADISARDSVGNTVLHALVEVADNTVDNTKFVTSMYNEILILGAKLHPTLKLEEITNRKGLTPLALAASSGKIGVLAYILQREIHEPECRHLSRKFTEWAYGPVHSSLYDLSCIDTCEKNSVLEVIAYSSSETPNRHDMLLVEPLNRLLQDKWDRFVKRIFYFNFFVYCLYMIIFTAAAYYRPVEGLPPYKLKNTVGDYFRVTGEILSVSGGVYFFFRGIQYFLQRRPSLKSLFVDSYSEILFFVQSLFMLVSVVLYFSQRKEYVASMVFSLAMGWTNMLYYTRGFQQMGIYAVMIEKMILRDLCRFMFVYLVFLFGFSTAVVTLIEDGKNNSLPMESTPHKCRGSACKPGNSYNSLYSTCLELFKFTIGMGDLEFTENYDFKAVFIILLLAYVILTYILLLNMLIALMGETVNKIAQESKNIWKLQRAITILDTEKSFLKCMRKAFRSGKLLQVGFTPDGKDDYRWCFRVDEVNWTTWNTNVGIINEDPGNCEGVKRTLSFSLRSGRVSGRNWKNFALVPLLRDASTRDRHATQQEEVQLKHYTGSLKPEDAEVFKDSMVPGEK

NCCOB(c1ccccc1)c1ccccc1 [2-APB, 2-amino-ethoxydiphenylborate]
relaxation of small human bronchi (small human bronchi): relaxes small human bronchi

C=C(C)[C@]12C[C@@H](C)[C@@]34O[C@](Cc5ccccc5)(O[C@@H]1[C@@H]3C=C(COC(=O)Cc1cc(I)c(O)c(OC)c1)C[C@]1(O)C(=O)C(C)=C[C@@H]41)O2 [I-RTX, iodo-resiniferatoxin]
potency of inhibition of capsaicin-induced bronchoconstriction relative to capsazepine [1]: 10-30 times
inhibition of leukotriene-induced bronchoconstriction ([2]; human bronchial preparations, found by the present inventors): did not inhibit
VR1 antagonist potency relative to capsazepine (VR1): at least 40 times

Oc1cc2c(cc1O)CN(C(=S)NCCc1ccccc1)CCC2 [RES 1-83]
effectiveness in relaxing broncho-constriction in comparison to capsazepine [2]: substantially less effective

Oc1cc2c(cc1O)CN(C(=S)NCc1ccc(C(F)(F)F)cc1)CCC2 [RES 3-22]
effectiveness in relaxing broncho-constriction in comparison to capsazepine [2]: about equally effective

Oc1c(Cl)cc2c(c1Cl)CCCN(C(=S)NCCc1ccc(Cl)cc1)C2 [RES 5-21]
effectiveness in relaxing broncho-constriction in comparison to capsazepine [2]: substantially more effective

Oc1cc2c(cc1O)CN(C(=S)NCCc1ccc(Cl)cc1)CCC2 [capsazepine]
remaining contraction (test force) relative to that caused by the control force ([2]; 10 μM capsazepine, 1 h exposure, 10 nM LTD4, bronchus from occasional smoker): about 55%

Cn1c(=O)c2[nH]cnc2n(C)c1=O [theophylline]
relaxation after pre-treatment of small human bronchi with 2-APB (small human bronchi; pre-treatment with 2-APB): not reduced

Reference: patent US20060040254A1, “Method for identifying bronchoconstriction relaxing substances” (priority 2004, published 2006)
